Measured values taken from PubChem BioAssay (NCI).
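GI50 marks 50% less growth. At the TGI there is no net growth.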

Assays:
Experiment in all cases: NCI anticancer screen, dose series, 384-well format
SK-MEL-2 melanoma = test system: SK-MEL-2 melanoma
SK-OV-3 ovarian = test system: SK-OV-3 ovarian
SW-620 colon = test system: SW-620 colon
OVCAR-5 ovarian = test system: OVCAR-5 ovarian
SN12C renal = test system: SN12C renal
OVCAR-8 ovarian = test system: OVCAR-8 ovarian
T-47D breast = test system: T-47D breast
A549 NSCLC = test system: A549 NSCLC
SK-MEL-28 melanoma = test system: SK-MEL-28 melanoma
UACC-257 melanoma = test system: UACC-257 melanoma
SNB-75 CNS = test system: SNB-75 CNS
COLO 205 colon = test system: COLO 205 colon
EKVX NSCLC = test system: EKVX NSCLC
CCRF-CEM leukemia = test system: CCRF-CEM leukemia
SF-539 CNS = test system: SF-539 CNS
A498 renal = test system: A498 renal
U251 glioblastoma = test system: U251 glioblastoma
NCI/ADR-RES ovarian = test system: NCI/ADR-RES ovarian
OVCAR-4 ovarian = test system: OVCAR-4 ovarian
TK-10 renal = test system: TK-10 renal
RXF 393 renal = test system: RXF 393 renal
HOP-62 NSCLC = test system: HOP-62 NSCLC
HCT-116 colon = test system: HCT-116 colon
LOX IMVI melanoma = test system: LOX IMVI melanoma
K-562 leukemia = test system: K-562 leukemia
HCC-2998 colon = test system: HCC-2998 colon
MDA-MB-435 melanoma = test system: MDA-MB-435 melanoma
UACC-62 melanoma = test system: UACC-62 melanoma
RPMI-8226 leukemia = test system: RPMI-8226 leukemia
MDA-MB-468 breast = test system: MDA-MB-468 breast
HS 578T breast = test system: HS 578T breast
MOLT-4 leukemia = test system: MOLT-4 leukemia
UO-31 renal = test system: UO-31 renal
IGROV1 ovarian = test system: IGROV1 ovarian
MDA-MB-231 breast = test system: MDA-MB-231 breast
HL-60(TB) leukemia = test system: HL-60(TB) leukemia
M14 melanoma = test system: M14 melanoma
PC-3 prostate = test system: PC-3 prostate
NCI-H460 NSCLC = test system: NCI-H460 NSCLC
NCI-H226 lung = test system: NCI-H226 lung
MCF7 breast = test system: MCF7 breast
HCT-15 colon = test system: HCT-15 colon
NCI-H322M lung = test system: NCI-H322M lung
SNB-19 CNS = test system: SNB-19 CNS
NCI-H522 lung = test system: NCI-H522 lung
SF-295 CNS = test system: SF-295 CNS
NCI-H23 lung = test system: NCI-H23 lung
CAKI-1 renal = test system: CAKI-1 renal
SK-MEL-5 melanoma = test system: SK-MEL-5 melanoma
DU-145 prostate = test system: DU-145 prostate
SF-268 CNS = test system: SF-268 CNS
KM12 colon = test system: KM12 colon
HT29 colon = test system: HT29 colon
OVCAR-3 ovarian = test system: OVCAR-3 ovarian
MALME-3M melanoma = test system: MALME-3M melanoma
HOP-92 NSCLC = test system: HOP-92 NSCLC
ACHN renal = test system: ACHN renal
786-0 renal = test system: 786-0 renal
BT-549 breast = test system: BT-549 breast

CNC(=O)c1cccc2cc(Oc3ccnc4cc(OCC5(N)CC5)c(OC)cc34)ccc12
GI50 (SK-MEL-2 melanoma): 1.89 µM
TGI (SK-MEL-2 melanoma): 4.35 µM
GI50 (SK-OV-3 ovarian): 3.01 µM
TGI (SK-OV-3 ovarian): 11.6 µM
GI50 (SW-620 colon): 4.12 µM
TGI (SW-620 colon): 15 µM
GI50 (OVCAR-5 ovarian): 5.37 µM
TGI (OVCAR-5 ovarian): 16.8 µM
GI50 (SN12C renal): 2.55 µM
TGI (SN12C renal): 8.63 µM
GI50 (OVCAR-8 ovarian): 4.05 µM
TGI (OVCAR-8 ovarian): 16.1 µM
GI50 (T-47D breast): 2.14 µM
TGI (T-47D breast): 7.39 µM
GI50 (A549 NSCLC): 4.22 µM
TGI (A549 NSCLC): 14.6 µM
GI50 (SK-MEL-28 melanoma): 12.1 µM
TGI (SK-MEL-28 melanoma): 24.6 µM
GI50 (UACC-257 melanoma): 4.04 µM
TGI (UACC-257 melanoma): 14.2 µM
GI50 (SNB-75 CNS): 1.02 µM
TGI (SNB-75 CNS): 9.33 µM
GI50 (COLO 205 colon): 3.22 µM
TGI (COLO 205 colon): 10.2 µM
GI50 (EKVX NSCLC): 3.66 µM
TGI (EKVX NSCLC): 14.8 µM
GI50 (CCRF-CEM leukemia): 1.67 µM
TGI (CCRF-CEM leukemia): 3.23 µM
GI50 (SF-539 CNS): 0.621 µM
TGI (SF-539 CNS): 4.94 µM
GI50 (A498 renal): 2.5 µM
TGI (A498 renal): 6.93 µM
GI50 (U251 glioblastoma): 3.73 µM
TGI (U251 glioblastoma): 14.9 µM
GI50 (NCI/ADR-RES ovarian): 13.3 µM
TGI (NCI/ADR-RES ovarian): 27 µM
GI50 (OVCAR-4 ovarian): 1.48 µM
TGI (OVCAR-4 ovarian): 4.04 µM
GI50 (TK-10 renal): 2.55 µM
TGI (TK-10 renal): 6.52 µM
GI50 (RXF 393 renal): 1.64 µM
TGI (RXF 393 renal): 4.39 µM
GI50 (HOP-62 NSCLC): 2.91 µM
TGI (HOP-62 NSCLC): 15.5 µM
GI50 (HCT-116 colon): 1.98 µM
TGI (HCT-116 colon): 3.84 µM
GI50 (LOX IMVI melanoma): 2.41 µM
TGI (LOX IMVI melanoma): 5.84 µM
GI50 (K-562 leukemia): 1.7 µM
TGI (K-562 leukemia): 3.59 µM
GI50 (HCC-2998 colon): 5.53 µM
TGI (HCC-2998 colon): 16 µM
GI50 (MDA-MB-435 melanoma): 2.63 µM
TGI (MDA-MB-435 melanoma): 7.43 µM
GI50 (UACC-62 melanoma): 2.37 µM
TGI (UACC-62 melanoma): 6.72 µM
GI50 (RPMI-8226 leukemia): 1.98 µM
TGI (RPMI-8226 leukemia): 5.13 µM
GI50 (MDA-MB-468 breast): 2.38 µM
TGI (MDA-MB-468 breast): 5.54 µM
GI50 (HS 578T breast): 1.23 µM
TGI (HS 578T breast): 4.08 µM
GI50 (MOLT-4 leukemia): 1.2 µM
TGI (MOLT-4 leukemia): 2.45 µM
GI50 (UO-31 renal): 3.17 µM
TGI (UO-31 renal): 10.9 µM
GI50 (IGROV1 ovarian): 5.36 µM
TGI (IGROV1 ovarian): 17.5 µM
GI50 (MDA-MB-231 breast): 3.64 µM
TGI (MDA-MB-231 breast): 14.4 µM
GI50 (HL-60(TB) leukemia): 2.28 µM
TGI (HL-60(TB) leukemia): 3.75 µM
GI50 (M14 melanoma): 3.97 µM
TGI (M14 melanoma): 14.3 µM
GI50 (PC-3 prostate): 4.42 µM
TGI (PC-3 prostate): 16.2 µM
GI50 (NCI-H460 NSCLC): 2.74 µM
TGI (NCI-H460 NSCLC): 7.12 µM
GI50 (NCI-H226 lung): 1.03 µM
TGI (NCI-H226 lung): 4.73 µM
GI50 (MCF7 breast): 2.37 µM
TGI (MCF7 breast): 10.8 µM
GI50 (HCT-15 colon): 3.87 µM
TGI (HCT-15 colon): 13.1 µM
GI50 (NCI-H322M lung): 6.8 µM
TGI (NCI-H322M lung): 19.4 µM
GI50 (SNB-19 CNS): 3.89 µM
TGI (SNB-19 CNS): 15.7 µM
GI50 (NCI-H522 lung): 2.75 µM
TGI (NCI-H522 lung): 9.57 µM
GI50 (SF-295 CNS): 6.14 µM
TGI (SF-295 CNS): 18.7 µM
GI50 (NCI-H23 lung): 4.73 µM
TGI (NCI-H23 lung): 16.4 µM
GI50 (CAKI-1 renal): 2.02 µM
TGI (CAKI-1 renal): 5.35 µM
GI50 (SK-MEL-5 melanoma): 2.3 µM
TGI (SK-MEL-5 melanoma): 8.66 µM
GI50 (DU-145 prostate): 5.43 µM
TGI (DU-145 prostate): 17.6 µM
GI50 (SF-268 CNS): 4.31 µM
TGI (SF-268 CNS): 17.9 µM
GI50 (KM12 colon): 3.83 µM
TGI (KM12 colon): 15.1 µM
GI50 (HT29 colon): 5.88 µM
TGI (HT29 colon): 17.9 µM
GI50 (OVCAR-3 ovarian): 2.23 µM
TGI (OVCAR-3 ovarian): 5.94 µM
GI50 (MALME-3M melanoma): 4.05 µM
TGI (MALME-3M melanoma): 15.7 µM
GI50 (HOP-92 NSCLC): 4.13 µM
TGI (HOP-92 NSCLC): 15.2 µM
GI50 (ACHN renal): 1.67 µM
TGI (ACHN renal): 3.37 µM
GI50 ([…]-0 renal): 1.77 µM
TGI (786-0 renal): 3.49 µM
GI50 (BT-549 breast): 1.78 µM
TGI (BT-549 breast): 8.85 µM
